Converted amounts (≈) assume the structure as drawn.
Experiments:
[1] = tested on: Mycobacterium smegmatis (ATCC 700084); experiment: Antimicrobial microdilution assay (MIC); format: cell-based; details: microdilution in 96-well plates, seven 1:2 serial dilution steps, Mueller–Hinton bouillon, start OD548 0.1, 30 °C, 160 rpm overnight
Description: (§1) The panel of test microorganisms consisted of the following multi drug-resistant (MDR) bacteria: Gram-negative Escherichia coli (DSM 1116) and Pseudomonas aeruginosa (PA16); Gram-positive Bacillus subtilis (DSM 10), Staphylococcus aureus (DSM 346), and Mycobacterium smegmatis (ATCC 7000048); yeasts Candida albicans (DSM 1665) and Rhodotorula glutinis (DSM 10134); and filamentous fungi Mucor hiemalis (DSM 2656). The positive controls were nystatin, oxytetracyclin, kanamycin, and gentamycin, with a concentration of 1 mg/mL. Compounds 1–4 were prepared in a concentration of 1 mg/mL MeOH. The activity of the samples was observed by using the microdilution technique in 96 well plates for tissue cultures (TPP). As much as 20 µL of the MeOH solution of each compound (1 mg/mL) was mixed with 300 µL of bacterial or fungal suspension, except for the positive controls where 2 µL of either oxytetracycline, kanamycin, and gentamycin in 300 µL of bacterial suspension was used. The samples were tested in seven 1:2 serial dilution steps (concentrations A to H) in 96-well plates. Bacteria were cultivated in Mueller–Hinton bouillon (Roth) and fungi/yeasts in MYC medium (1.0% phytone peptone, 1.0% glucose, and 1.19% HEPES, pH 7.0). Start OD600 was 0.01 for B. subtilis, E. coli, and S. aureus; start OD548 was 0.1 for M. hiemalis, C. albicans, R. glutinis, M. smegmatis, and P. aeruginosa. The test organisms were cultivated at 30 °C and 160 rpm overnight.

[2] = tested on: Candida albicans (DSM 1665); experiment: Antimicrobial microdilution assay (MIC); format: cell-based; details: microdilution in 96-well plates, seven 1:2 serial dilution steps, MYC medium pH 7.0, start OD548 0.1, 30 °C, 160 rpm overnight
Description: as §1

[3] = tested on: Mucor hiemalis (DSM 2656); format: cell-based; details: for MIC, Fungi, Mh: Mucor hiemalis (DSM 2656), microdilution in 96-well plates, seven 1:2 serial dilution steps, MYC medium pH 7.0, start OD548 0.1, 30 °C, 160 rpm overnight
Description: as §1

[4] = tested on: Rhodoturula glutinis (DSM 10134); format: cell-based; details: for MIC, Fungi, Rg: Rhodoturula glutinis (DSM 10134), microdilution in 96-well plates, seven 1:2 serial dilution steps, MYC medium pH 7.0, start OD548 0.1, 30 °C, 160 rpm overnight
Description: as §1

[5] = tested on: Bacillus subtilis (DSM 10); experiment: microbe, parasite or virus in culture; format: cell-based; details: seven 1:2 serial dilution steps, Mueller–Hinton bouillon, start OD600 0.01, 30 °C, 160 rpm overnight
Description: as §1

[6] = tested on: Staphylococcus aureus (DSM 346); experiment: microbe, parasite or virus in culture; format: cell-based; details: seven 1:2 serial dilution steps, Mueller–Hinton bouillon, start OD600 0.01, 30 °C, 160 rpm overnight; for MIC, Gram-Positive, Sa: microdilution in 96-well plates
Description: as §1

[7] = tested on: Eschericia coli (DSM 1116); experiment: Antimicrobial microdilution assay (MIC); format: cell-based, Escherichia coli; details: seven 1:2 serial dilution steps, Mueller–Hinton bouillon, start OD600 0.01, 30 °C, 160 rpm overnight; for MIC, Gram-Negative, Ec: microdilution in 96-well plates
Description: as §1

[8] = tested on: Huh7.5 cells; experiment: Viability of Huh7.5 cells (Firefly luciferase) in the anti-HCV assay; format: cell-based; details: 10 µg/mL; Firefly luciferase read-out; compared to positive control EGCG; Figure 4B
Experimental: (§2) The anti-HCV assay was performed as mentioned in [5]. In brief, Huh7.5 cells stably expressing Firefly luciferase (Huh7.5 Fluc) were cultured in Dulbecco’s modified minimum essential medium (DMEM, Gibco, Thermo Fisher Scientific, Schwerte, Germany) and maintained in a 37 °C environment with 5% CO2 supply. Samples were added to the cells, and then the cells were infected with Jc1-derived Renilla reporter viruses. Compounds and the positive control (Epigallocatechin gallate, EGCG) were tested at a concentration of 10 µg/mL. Renilla and Firefly luciferase activities from the infected cells were measured on a Berthold Technologies Centro XS3 Microplate Luminometer (Bad Wildbad, Germany) as indicators of viral genome replication and cell viability, respectively.

[9] = tested on: Hepatitis C Virus (HCV), Jc1-derived Renilla reporter viruses in Huh7.5 Fluc cells; experiment: Inhibitory effects on Hepatitis C Virus (HCV) infectivity; format: cell-based; details: 10 µg/mL, Huh7.5 Fluc cells infected with Jc1-derived Renilla reporter viruses, Renilla luciferase read-out, compared to positive control EGCG, Figure 4A
Experimental: as §2

[10] = tested on: Bacillus subtilis (Bs); details: pH values from 5.5 to 9.5; cited from earlier work
Description: Previous studies had also shown antifungal activity of valinomycin against the plant pathoge ...

[11] = tested on: Pseudomonas aeruginosa (PA14); experiment: Antimicrobial microdilution assay (MIC); format: cell-based; details: microdilution in 96-well plates, seven 1:2 serial dilution steps, Mueller–Hinton bouillon, start OD548 0.1, 30 °C, 160 rpm overnight
Description: as §1

Compound | MIC, Fungi, Mh [3] | MIC, Fungi, Rg [4] | Viability of Huh7.5 cells after exposure to the test compounds, in words [8] | MIC, Gram-Negative, Ec [7] | Activity against HCV infectivity (HCV-infected hepatoma cells), in words [9] | other results
NC[C@H]1O[C@H](O[C@H]2[C@H](O)[C@@H](O[C@H]3O[C@H](CO)[C@@H](O)[C@H](N)[C@H]3O)[C@H](N)C[C@@H]2N)[C@H](O)[C@@H](O)[C@@H]1O [Kanamycin] |  |  |  |  |  | MIC, Gram-Positive, Ms [1]: 3.3 µg/mL (≈ 6.81 µM)
C[C@@H]1[C@H](O)[C@@H](C)/C=C/C=C/CC/C=C/C=C/C=C/C=C/C(O[C@H]2O[C@H](C)[C@@H](O)[C@H](N)[C@@H]2O)CC2O[C@](O)(CC(O)C(O)CCC(O)CC(O)CC(O)CC(=O)O[C@H]1C)CC(O)C2C(=O)O (stereo partly drawn) [Nystatin, reference compound] | 16.6 µg/mL (≈ 17.9 µM) | 4.2 µg/mL (≈ 4.54 µM) |  |  |  | MIC, Fungi, Ca [2]: 33.3 µg/mL (≈ 36 µM)
CN(C)[C@@H]1C(O)=C(C(N)=O)C(=O)[C@@]2(O)C(O)=C3C(=O)c4c(O)cccc4[C@@](C)(O)[C@H]3[C@H](O)[C@@H]12 [Oxytetracycline, reference compound] |  |  |  |  |  | MIC ([5]; DSM10, microdilution in 96-well plates, read-out: MIC, Gram-Positive, Bs): 8.3 µg/mL (≈ 18 µM); MIC ([6]; DSM346, microdilution in 96-well plates, read-out: MIC, Gram-Positive, Sa): 0.2 µg/mL (≈ 0.434 µM); MIC ([7]; Escherichia coli, DSM1116, microdilution in 96-well plates, read-out: MIC, Gram-Negative, Ec): 1.7 µg/mL (≈ 3.69 µM)
CC[C@H]1OC(=O)[C@H](C(C)C)NC(=O)[C@H](C)OC(=O)[C@@H](C(C)C)NC(=O)[C@@H](C(C)C)OC(=O)[C@H](C(C)C)NC(=O)[C@H](C)OC(=O)[C@@H](C(C)C)NC(=O)[C@@H](C(C)C)OC(=O)[C@H](C(C)C)NC(=O)[C@H](C)OC(=O)[C@@H](C(C)C)NC1=O [Streptodepsipeptide P11A (2), Streptodepsipeptide P11A] | 8.3 µg/mL (≈ 7.56 µM) | 8.3 µg/mL (≈ 7.56 µM) | lower than for the positive control | - | potent antiviral activity | 
CC(C)[C@@H]1NC(=O)[C@H](C)OC(=O)[C@@H](C(C)C)NC(=O)[C@@H](C(C)C)OC(=O)[C@H](C(C)C)NC(=O)[C@H](C)OC(=O)[C@@H](C(C)C)NC(=O)[C@@H](C(C)C)OC(=O)[C@H](C(C)C)NC(=O)[C@H](C)OC(=O)[C@@H](C(C)C)NC(=O)[C@H](C)OC1=O [Streptodepsipeptide P11B (1), Streptodepsipeptide P11B] | 16.6 µg/mL (≈ 15.3 µM) | 33.3 µg/mL (≈ 30.7 µM) |  | - | significantly less affected the HCV | 
CCC(C)[C@H]1OC(=O)[C@H](C(C)C)NC(=O)[C@H](C)OC(=O)[C@@H](C(C)C)NC(=O)[C@@H](C(C)C)OC(=O)[C@H](C(C)C)NC(=O)[C@H](C)OC(=O)[C@@H](C(C)C)NC(=O)[C@@H](C(C)C)OC(=O)[C@H](C(C)C)NC(=O)[C@H](C)OC(=O)[C@@H](C(C)C)NC1=O (stereo partly drawn) [Streptodepsipeptide SV21 (4), Streptodepsipeptide SV21] | 16.6 µg/mL (≈ 14.8 µM) | 16.6 µg/mL (≈ 14.8 µM) | lower than for the positive control | - |  | MIC, Gram-Positive, Bs ([5]; microdilution in 96-well plates): 33.3 µg/mL (≈ 29.6 µM); MIC, Gram-Positive, Sa [6]: 16.6 µg/mL (≈ 14.8 µM); Activity against HCV infectivity (HCV-infected hepatoma cells), in words ([9]; listed as 4): potent antiviral activity
CC(C)[C@@H]1NC(=O)[C@H](C)OC(=O)[C@@H](C(C)C)NC(=O)[C@@H](C(C)C)OC(=O)[C@H](C(C)C)NC(=O)[C@H](C)OC(=O)[C@@H](C(C)C)NC(=O)[C@@H](C(C)C)OC(=O)[C@H](C(C)C)NC(=O)[C@H](C)OC(=O)[C@@H](C(C)C)NC(=O)[C@@H](C(C)C)OC1=O [Valinomycin (3), Valinomycin] | 2.1 µg/mL (≈ 1.89 µM) | 4.2 µg/mL (≈ 3.78 µM) | lower than for the positive control | - | potent antiviral activity | MIC, Gram-Positive, Sa [6]: 4.2 µg/mL (≈ 3.78 µM); Antibacterial activity against Bs as a function of pH, in words [10]: increase in antibacterial activity against Bs at higher pH values; Antifungal strength relative to nystatin against Mh ([3]; comparison of MIC values, Mucor hiemalis): eight times stronger than nystatin; Antifungal strength relative to nystatin against Rg ([4]; comparison of MIC values, Rg): as strong as nystatin
Gentamycin |  |  |  |  |  | MIC, Gram-Negative, Pa [11]: 0.4 µg/mL

Source: PMC7912928, “Anti-Infective and Antiviral Activity of Valinomycin and Its Analogues from a Sea Cucumber-Associated Bacterium, Streptomyces sp. SV 21” (Marine Drugs, 2021)
